From ChEMBL document CHEMBL1201862, “PubChem BioAssay data set” (2004)
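Method: 48-hour compound exposure of cells in 96-well plates, five concentrations, linear interpolation of endpoints. Abbreviation: GI50, concentration required for 50% inhibition of growth.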 The source made the active and inactive calls. Rule as the data show it: active = GI50 up to about 1.1 µM and inactive = higher.

Tests used:
Experiment in all cases: NCI anticancer screen, dose series, 48 h
U-251 = test system: U-251
OVCAR-3 = test system: OVCAR-3
HT-29 = test system: HT-29
OVCAR-4 = test system: OVCAR-4
EKVX = test system: EKVX
Hs-578T = test system: Hs-578T
RPMI-8226 = test system: RPMI-8226
BT-549 = test system: BT-549
MDA-N = test system: MDA-N
MCF7 = test system: MCF7
SK-MEL-5 = test system: SK-MEL-5
UO-31 = test system: UO-31
SNB-19 = test system: SNB-19
MOLT-4 = test system: MOLT-4
OVCAR-8 = test system: OVCAR-8
K562 = test system: K562
SN12C = test system: SN12C
SF-295 = test system: SF-295
HCC 2998 = test system: HCC 2998
SR = test system: SR

Row | SMILES | GI50 (U-251) | GI50 (OVCAR-3) | GI50 (HT-29) | GI50 (OVCAR-4) | GI50 (EKVX) | GI50 (Hs-578T) | GI50 (RPMI-8226) | GI50 (BT-549) | GI50 (MDA-N) | GI50 (MCF7) | GI50 (SK-MEL-5) | GI50 (UO-31) | GI50 (SNB-19) | GI50 (MOLT-4) | GI50 (OVCAR-8) | GI50 (K562) | GI50 (SN12C) | GI50 (SF-295) | GI50 (HCC 2998) | GI50 (SR)
1 | O=C(O)CNC(=O)c1ccc([As](=O)(O)O)cc1 | > 100 µM (inactive) | > 100 µM (inactive) | > 100 µM (inactive) | > 100 µM (inactive) | > 100 µM (inactive) | > 100 µM (inactive) | > 100 µM (inactive) | > 100 µM (inactive) | > 100 µM (inactive) | > 100 µM (inactive) | > 100 µM (inactive) | > 100 µM (inactive) | > 100 µM (inactive) | > 100 µM (inactive) | > 100 µM (inactive) | > 100 µM (inactive) | > 100 µM (inactive) | > 100 µM (inactive) |  | 
2 | COc1ccc(/C=C/c2nccc3ccccc23)cc1OC | > 10 µM (inactive) | 9.2 µM (inactive) | 4.05 µM (inactive) | > 10 µM (inactive) | > 10 µM (inactive) | > 10 µM (inactive) | 5.98 µM (inactive) | > 10 µM (inactive) | > 10 µM (inactive) | 2.43 µM (inactive) | 6.21 µM (inactive) |  | > 10 µM (inactive) | 4.52 µM (inactive) | > 10 µM (inactive) | 5.5 µM (inactive) | 9.48 µM (inactive) | > 10 µM (inactive) | > 10 µM (inactive) | 
3 | O=P1(c2ccccc2)C(c2ccccc2)CCC1c1ccccc1 (stereo not drawn) |  | 53 µM (inactive) |  |  | 29.5 µM (inactive) | > 100 µM (inactive) | 22.1 µM (inactive) | 29.7 µM (inactive) | 15.1 µM (inactive) | > 100 µM (inactive) | 37.2 µM (inactive) | 66.1 µM (inactive) | > 100 µM (inactive) | 32.2 µM (inactive) | 91.4 µM (inactive) | 10.8 µM (inactive) | 34.9 µM (inactive) | 32.1 µM (inactive) | > 100 µM (inactive) | 
4 | COc1cccc(/N=C/c2cc3cc(Br)ccc3nc2Cl)c1 |  | 34.4 µM (inactive) | 27 µM (inactive) | 0.736 µM (active) | > 50 µM (inactive) | 40.6 µM (inactive) | 2.96 µM (inactive) | 47 µM (inactive) | 13.6 µM (inactive) |  | 36.1 µM (inactive) | 12.5 µM (inactive) | > 50 µM (inactive) | 7.05 µM (inactive) | 2.95 µM (inactive) | 8.09 µM (inactive) | 15.5 µM (inactive) | 39.4 µM (inactive) | 15 µM (inactive) | 1.85 µM (inactive)
5 | CCOC1OC(CO)C(O)CC1n1ccc(=O)[nH]c1=O (stereo not drawn) | > 100 µM (inactive) | > 100 µM (inactive) | > 100 µM (inactive) | > 100 µM (inactive) | > 100 µM (inactive) | > 100 µM (inactive) | > 100 µM (inactive) | > 100 µM (inactive) | > 100 µM (inactive) | > 100 µM (inactive) | > 100 µM (inactive) | > 100 µM (inactive) | > 100 µM (inactive) |  | > 100 µM (inactive) | > 100 µM (inactive) | > 100 µM (inactive) | > 100 µM (inactive) | > 100 µM (inactive) | 
6 | C=CCCCCOC1C=CC(O)C(CO)O1 (stereo not drawn) | > 100 µM (inactive) | > 100 µM (inactive) | > 100 µM (inactive) | > 100 µM (inactive) | > 100 µM (inactive) | 30.1 µM (inactive) | > 100 µM (inactive) | > 100 µM (inactive) | > 100 µM (inactive) | > 100 µM (inactive) | > 100 µM (inactive) | > 100 µM (inactive) | > 100 µM (inactive) | > 100 µM (inactive) | > 100 µM (inactive) | > 100 µM (inactive) | > 100 µM (inactive) | > 100 µM (inactive) | > 100 µM (inactive) | 
7 | Cn1c(N)nc(-c2ccc(Cl)cc2)c1SSc1c(-c2ccc(Cl)cc2)nc(N)n1C | 2.03 µM (inactive) | 1.82 µM (inactive) | 2.3 µM (inactive) | 1.75 µM (inactive) | 2.73 µM (inactive) | 27.1 µM (inactive) | 1.31 µM (inactive) | 2.58 µM (inactive) | 1.77 µM (inactive) |  | 1.82 µM (inactive) | 1.85 µM (inactive) | 14.7 µM (inactive) | 5.25 µM (inactive) | 2.86 µM (inactive) | 2.36 µM (inactive) | 3.42 µM (inactive) | 6.93 µM (inactive) | 7.82 µM (inactive) | 
8 | Cn1c(=O)n2n(c1=O)C1C(=CC2)C2C=CC1n1c(=O)n(C)c(=O)n12 (stereo not drawn) | > 100 µM (inactive) | > 100 µM (inactive) | > 100 µM (inactive) |  | > 100 µM (inactive) | > 100 µM (inactive) | > 100 µM (inactive) | > 100 µM (inactive) | > 100 µM (inactive) |  | > 100 µM (inactive) | > 100 µM (inactive) | > 100 µM (inactive) | > 100 µM (inactive) | > 100 µM (inactive) | > 100 µM (inactive) | > 100 µM (inactive) | > 100 µM (inactive) |  | 
9 | CC/C(Cl)=N\OC(=O)Nc1ccc(F)cc1F | 22.4 µM (inactive) | 17 µM (inactive) | 21.3 µM (inactive) | 17.9 µM (inactive) | 8.55 µM (inactive) | 32.2 µM (inactive) | 1.49 µM (inactive) | 2.38 µM (inactive) | 5.87 µM (inactive) | 7.78 µM (inactive) | 6.12 µM (inactive) | 14.9 µM (inactive) | 25.4 µM (inactive) | 1.55 µM (inactive) | 19.8 µM (inactive) | 0.244 µM (active) | 5.73 µM (inactive) | 26.4 µM (inactive) | 19.3 µM (inactive) | 
10 | CCOC(=O)/C=C(\C(=O)OCC)n1ccc(=O)n(Cc2cnnn2COCCOC(C)=O)c1=O | 16.4 µM (inactive) | 11 µM (inactive) | 14.2 µM (inactive) | 23.9 µM (inactive) | 14.5 µM (inactive) | 20.5 µM (inactive) | 8.15 µM (inactive) | 8.28 µM (inactive) | 16.8 µM (inactive) | 6.4 µM (inactive) | 21.9 µM (inactive) | 16.8 µM (inactive) | > 46.7 µM (inactive) | 2.59 µM (inactive) | 12.1 µM (inactive) | 3.48 µM (inactive) | 15.4 µM (inactive) | 28.7 µM (inactive) | 17.9 µM (inactive) | 
11 | CSc1nc2c(c(N(C)C)n1)C=Nn1c(nc3ccccc31)S2 | > 100 µM (inactive) | > 100 µM (inactive) | > 100 µM (inactive) | 81.8 µM (inactive) |  | 41.4 µM (inactive) | > 100 µM (inactive) | 95.9 µM (inactive) | 95.1 µM (inactive) |  | 52.1 µM (inactive) | 51.1 µM (inactive) | > 100 µM (inactive) | > 100 µM (inactive) | 74.3 µM (inactive) | > 100 µM (inactive) | > 100 µM (inactive) | > 100 µM (inactive) | 70.5 µM (inactive) | 
12 | CC(C)(O)C1OCC(C2CCC3(C)C4=CCC5C(C)(C)C(O)CCC5(C)C4CCC23C)CC1O (stereo not drawn) | 14.4 µM (inactive) | 17.1 µM (inactive) | 13.1 µM (inactive) | 11.8 µM (inactive) | 17.2 µM (inactive) | 13.8 µM (inactive) | 7.94 µM (inactive) | 11.1 µM (inactive) | 16.6 µM (inactive) | 11.6 µM (inactive) | 14.7 µM (inactive) | 16 µM (inactive) | 16.4 µM (inactive) | 10.8 µM (inactive) | 14.4 µM (inactive) | 4.44 µM (inactive) | 14.4 µM (inactive) | 13.9 µM (inactive) | 16.6 µM (inactive) | 
13 | C#CCNCC(=O)O | > 100 µM (inactive) | > 100 µM (inactive) | > 100 µM (inactive) | > 100 µM (inactive) | > 100 µM (inactive) | > 100 µM (inactive) | > 100 µM (inactive) | > 100 µM (inactive) | > 100 µM (inactive) | > 100 µM (inactive) | > 100 µM (inactive) | > 100 µM (inactive) | > 100 µM (inactive) | > 100 µM (inactive) | > 100 µM (inactive) |  |  | > 100 µM (inactive) | > 100 µM (inactive) | 
14 | [N-]=[N+]=NC1=NNC2(C(=O)N1)c1ccccc1-c1ccccc12 | > 100 µM (inactive) | > 100 µM (inactive) | > 100 µM (inactive) | > 100 µM (inactive) | > 100 µM (inactive) | 27.6 µM (inactive) |  | > 100 µM (inactive) | > 100 µM (inactive) | 72.1 µM (inactive) | > 100 µM (inactive) | > 100 µM (inactive) | > 100 µM (inactive) |  | > 100 µM (inactive) | > 100 µM (inactive) | > 100 µM (inactive) | > 100 µM (inactive) | > 100 µM (inactive) | 
15 | CO[C@H]1C[C@H](O[C@H]2CC[C@]3(C=O)[C@H]4CC[C@]5(C)[C@@H](C6=CC(=O)OC6)CC[C@]5(O)[C@@H]4CC[C@]3(O)C2)O[C@H](C)[C@H]1O[C@@H]1O[C@H](CO)[C@@H](O)[C@H](O)[C@H]1O | 4.07e-05 µM (active) | 7.67e-06 µM (active) | 3.03e-05 µM (active) | 8.63e-06 µM (active) | 7e-06 µM (active) | > 0.01 µM (active) | 3.7e-05 µM (active) | 1.22e-05 µM (active) | 3.94e-05 µM (active) |  | 2.62e-05 µM (active) | 3.49e-05 µM (active) | 8.93e-05 µM (active) | 5.42e-06 µM (active) | 3.34e-05 µM (active) | > 0.01 µM (active) | 1.05e-05 µM (active) | 2.04e-05 µM (active) | > 0.01 µM (active) | > 0.01 µM (active)
